From ChEMBL document CHEMBL1201862, “PubChem BioAssay data set” (2004)
Calls of active or inactive are those of the source.

Tests used:
[1] = test system: CHO-K1; assay: Counterscreen for antagonists of the orexin 1 receptor (OX1R; HCRTR1): Homogeneous time resolved fluorescence (HTRF)-based cell-based dose response assay to identify antagonists of the parental CHO-K1 cell line. [Related pubchem assays (depositor defined):AID434989, AID435008, AID463079, AID485270, AID492963, AID492964, AID492965, AID493232, AID504699, AID504701]; assay type: functional; conditions: Cricetulus griseus;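 also: potency for inhibition of ATP-stimulated IP1 production as antagonists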
[2] = Counterscreen for antagonists of the orexin 1 receptor (OX1R; HCRTR1): Fluorescence-based cell-based high throughput dose response assay to identify antagonists of the parental CHO cell line. [Related pubchem assays (depositor defined):AID434989, AID435008, AID463079, AID485270, AID492963, AID492964, AID492965, AID493232, AID504699, AID504701]; assay type: functional
[3] = target: T1, Orexin/Hypocretin receptor type 1 (Homo sapiens, UniProt O43613); assay: Homogeneous Time Resolved Fluorescence (HTRF)-based cell-based high throughput dose response assay for antagonists of the orexin 1 receptor (OX1R; HCRTR1). [Related pubchem assays (depositor defined):AID434989, AID435008, AID463079, AID485270, AID492963, AID492964, AID492965, AID493232, AID504717, AID504718]; assay type: functional
T1 sequence (O43613 whole entry): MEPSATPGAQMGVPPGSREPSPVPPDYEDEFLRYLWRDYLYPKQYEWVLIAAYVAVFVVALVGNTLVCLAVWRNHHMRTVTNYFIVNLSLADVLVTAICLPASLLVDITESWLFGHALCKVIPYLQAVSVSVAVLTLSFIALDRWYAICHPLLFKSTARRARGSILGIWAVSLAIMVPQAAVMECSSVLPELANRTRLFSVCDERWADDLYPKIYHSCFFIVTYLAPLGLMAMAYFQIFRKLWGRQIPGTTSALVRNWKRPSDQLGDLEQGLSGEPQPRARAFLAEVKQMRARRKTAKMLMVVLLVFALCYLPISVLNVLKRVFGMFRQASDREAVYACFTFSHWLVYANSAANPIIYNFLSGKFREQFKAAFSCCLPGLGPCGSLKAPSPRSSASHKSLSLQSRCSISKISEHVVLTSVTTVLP

[4] = target: T1, Orexin/Hypocretin receptor type 1; assay: Fluorescence-based cell-based high throughput dose response assay for antagonists of the orexin 1 receptor (OX1R; HCRTR1). [Related pubchem assays (depositor defined):AID434989, AID435008, AID463079, AID485270, AID492963, AID492964, AID492965, AID493232, AID504717, AID504718]; assay type: functional
[5] = target: T2, Orexin receptor type 2 (Homo sapiens, UniProt O43614); assay: Counterscreen assay for antagonists of the orexin 1 receptor (OX1R; HCRTR1): Fluorescence-based cell-based dose response assay for antagonists of the orexin 2 receptor (OX2R; HCRTR2), run by assay provider.; assay type: functional
T2 sequence (O43614 whole entry): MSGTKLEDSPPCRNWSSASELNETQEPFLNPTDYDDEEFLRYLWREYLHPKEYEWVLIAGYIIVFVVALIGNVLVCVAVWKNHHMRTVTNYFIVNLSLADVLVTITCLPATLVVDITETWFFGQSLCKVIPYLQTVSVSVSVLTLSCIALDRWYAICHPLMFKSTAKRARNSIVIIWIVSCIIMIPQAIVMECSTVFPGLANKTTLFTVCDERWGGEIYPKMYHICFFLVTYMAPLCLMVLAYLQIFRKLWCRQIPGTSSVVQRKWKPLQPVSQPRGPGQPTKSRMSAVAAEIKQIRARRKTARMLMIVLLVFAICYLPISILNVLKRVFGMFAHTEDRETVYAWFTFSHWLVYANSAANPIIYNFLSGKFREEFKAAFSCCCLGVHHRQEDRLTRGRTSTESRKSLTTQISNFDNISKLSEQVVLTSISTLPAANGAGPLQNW

[6] = target: T2, Orexin receptor type 2; assay: Counterscreen assay for antagonists of the orexin 1 receptor (OX1R; HCRTR1): Homogeneous Time Resolved Fluorescence (HTRF)-based cell-based dose response assay for antagonists of the orexin 2 receptor (OX2R; HCRTR2), run by assay provider.; assay type: functional
[7] = target: T3, Long-chain-fatty-acid--AMP ligase FadD28 (Mycobacterium tuberculosis, UniProt P9WQ59); assay: Fluorescence polarization aasay to screen for inhibitors that compete for the binding of FadD28 to a bisubstrate Measured in Biochemical System Using Plate Reader - 2147-01_Inhibitor_Dose_CherryPick_Activity.; assay type: functional, Mycobacterium tuberculosis H37Rv
T3 sequence (P9WQ59 whole entry): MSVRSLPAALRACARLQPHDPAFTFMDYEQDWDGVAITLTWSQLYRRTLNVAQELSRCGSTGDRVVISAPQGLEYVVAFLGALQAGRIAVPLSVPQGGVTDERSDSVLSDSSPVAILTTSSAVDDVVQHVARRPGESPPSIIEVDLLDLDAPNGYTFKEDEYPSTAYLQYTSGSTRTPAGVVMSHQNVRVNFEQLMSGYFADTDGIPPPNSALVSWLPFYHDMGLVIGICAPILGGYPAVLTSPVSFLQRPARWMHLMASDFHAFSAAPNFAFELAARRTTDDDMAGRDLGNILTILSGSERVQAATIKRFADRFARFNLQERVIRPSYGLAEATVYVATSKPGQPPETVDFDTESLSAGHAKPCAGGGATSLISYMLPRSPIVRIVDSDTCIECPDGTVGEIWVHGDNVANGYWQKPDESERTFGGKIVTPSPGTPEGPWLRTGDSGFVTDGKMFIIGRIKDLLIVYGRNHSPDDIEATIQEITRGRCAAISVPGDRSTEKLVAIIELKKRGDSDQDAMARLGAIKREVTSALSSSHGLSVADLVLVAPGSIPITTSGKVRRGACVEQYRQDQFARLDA

[8] = target: T4, RNA-binding protein pos-1 (Caenorhabditis elegans, UniProt G5EF15); assay: disruptors of C. elegans POS-1 RNA interaction – biochemical, fluorescence polarization, dose response (AID 1964);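 also: purified POS-1 fused to maltose binding protein made in E. coli; potency of compounds blocking POS-1 binding to fluorescent RNA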
T4 sequence (G5EF15 whole entry): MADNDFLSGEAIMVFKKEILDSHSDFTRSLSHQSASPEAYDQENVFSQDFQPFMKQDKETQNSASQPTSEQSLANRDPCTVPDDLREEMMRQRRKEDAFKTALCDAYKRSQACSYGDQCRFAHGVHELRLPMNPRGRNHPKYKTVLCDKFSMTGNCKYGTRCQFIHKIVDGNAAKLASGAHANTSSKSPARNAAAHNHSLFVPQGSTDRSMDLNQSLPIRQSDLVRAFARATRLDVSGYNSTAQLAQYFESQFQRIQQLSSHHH

[9] = target: T5, Zinc finger protein mex-5 (Caenorhabditis elegans, UniProt Q9XUB2); assay: potency of MEX-5 RNA-binding blockers – biochemical, C. elegans, fluorescence polarization, dose response (AID 1960)
T5 sequence (Q9XUB2 whole entry): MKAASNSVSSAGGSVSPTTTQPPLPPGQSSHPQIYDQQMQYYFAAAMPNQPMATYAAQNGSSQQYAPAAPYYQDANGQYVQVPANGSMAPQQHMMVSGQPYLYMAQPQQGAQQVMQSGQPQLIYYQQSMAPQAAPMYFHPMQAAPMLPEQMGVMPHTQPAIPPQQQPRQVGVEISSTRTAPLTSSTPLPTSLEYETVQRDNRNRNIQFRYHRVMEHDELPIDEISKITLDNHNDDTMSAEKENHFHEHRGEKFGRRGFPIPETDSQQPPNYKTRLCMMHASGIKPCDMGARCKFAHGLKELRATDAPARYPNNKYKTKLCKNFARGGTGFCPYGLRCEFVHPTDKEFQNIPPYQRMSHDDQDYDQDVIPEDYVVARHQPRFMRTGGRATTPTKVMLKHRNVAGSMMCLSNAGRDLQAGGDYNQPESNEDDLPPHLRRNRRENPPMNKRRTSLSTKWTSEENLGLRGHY

[10] = target: Large T antigen (Simian virus 40, UniProt P03070); assay type: functional, Betapolyomavirus macacae;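 also: Confirmatory-stage PubChem screen for compounds that inhibit SV40 T antigen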
Sequence of Large T antigen (P03070 whole entry): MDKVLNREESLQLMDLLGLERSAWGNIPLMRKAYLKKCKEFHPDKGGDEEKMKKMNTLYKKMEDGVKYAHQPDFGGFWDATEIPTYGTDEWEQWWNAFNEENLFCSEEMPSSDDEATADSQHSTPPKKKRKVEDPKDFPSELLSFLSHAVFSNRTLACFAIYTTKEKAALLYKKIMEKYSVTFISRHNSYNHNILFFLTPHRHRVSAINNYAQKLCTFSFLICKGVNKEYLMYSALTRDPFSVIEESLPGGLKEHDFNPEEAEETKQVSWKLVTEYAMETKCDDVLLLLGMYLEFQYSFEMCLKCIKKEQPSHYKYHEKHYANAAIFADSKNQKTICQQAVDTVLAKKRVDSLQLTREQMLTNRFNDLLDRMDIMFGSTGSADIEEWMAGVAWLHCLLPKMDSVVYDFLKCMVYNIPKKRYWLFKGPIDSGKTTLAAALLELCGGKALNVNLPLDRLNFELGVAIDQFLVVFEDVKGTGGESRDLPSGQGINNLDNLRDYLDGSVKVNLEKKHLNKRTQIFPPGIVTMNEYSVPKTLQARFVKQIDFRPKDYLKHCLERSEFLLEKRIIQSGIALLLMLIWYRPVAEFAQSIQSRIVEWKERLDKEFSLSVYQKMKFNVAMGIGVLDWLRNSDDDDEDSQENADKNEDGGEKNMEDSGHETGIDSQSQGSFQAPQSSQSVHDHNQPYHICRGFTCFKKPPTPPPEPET

[11] = target: T6, Small ubiquitin-related modifier 1 (Homo sapiens, UniProt P63165); assay: SUMO1 protein interaction blockers, potency – biochemical, fluorescence polarization, uHTS hits, dose response (AID 624382); assay type: functional; conditions: read-out: IC50_Mean
T6 sequence (P63165 whole entry): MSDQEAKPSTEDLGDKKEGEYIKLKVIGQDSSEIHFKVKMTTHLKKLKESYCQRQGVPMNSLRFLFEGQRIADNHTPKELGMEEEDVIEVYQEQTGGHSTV

[12] = target: T6, Small ubiquitin-related modifier 1; assay: SUMO1 protein-protein binding blockers, potency – biochemical, FRET, dose response (AID 624383); assay type: functional; conditions: read-out: IC50_Mean
[13] = target: T7, Caspase-6 (Homo sapiens, UniProt P55212); assay: inhibition of CASP6 peptide cleavage – biochemical, VEID-R110 fluorescence, cherry-pick, dose response (AID 720632)
T7 sequence (P55212 whole entry): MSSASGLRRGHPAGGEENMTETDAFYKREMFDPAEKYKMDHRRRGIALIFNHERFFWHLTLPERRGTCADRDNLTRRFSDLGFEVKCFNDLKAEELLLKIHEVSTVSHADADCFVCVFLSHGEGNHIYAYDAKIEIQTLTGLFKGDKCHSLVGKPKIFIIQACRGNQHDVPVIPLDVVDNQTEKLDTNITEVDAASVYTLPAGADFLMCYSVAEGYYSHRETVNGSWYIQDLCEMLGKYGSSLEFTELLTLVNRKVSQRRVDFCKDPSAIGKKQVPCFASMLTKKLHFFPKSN

[14] = target: Peroxisome proliferator-activated receptor gamma/Nuclear receptor coactivator 1 (Homo sapiens, UniProt P37231); assay: TR-FRET dose response biochemical High Throughput Screening assay for agonists of the steroid receptor coactivator 1 (SRC-1) recruitment by the peroxisome proliferator-activated receptor gamma (PPAR gamma): non-selective agonists. [Related pubchem assays (depositor defined):AID1300, AID1808, AID504735, AID631]; assay type: protein assay
[15] = target: Peroxisome proliferator-activated receptor gamma/Nuclear receptor coactivator 3 (Homo sapiens, UniProt P37231); assay: TR-FRET dose response biochemical High Throughput Screening assay for agonists of the steroid receptor coactivator 3 (SRC-3) recruitment by the peroxisome proliferator-activated receptor gamma (PPAR gamma): non-selective agonists. [Related pubchem assays: 1301 (Confirmation screen.), 1048 (Primary screen.)]; assay type: functional
[16] = target: Peroxisome proliferator-activated receptor gamma/Nuclear receptor coactivator 2 (Homo sapiens, UniProt P37231); assay: TR-FRET dose response biochemical High Throughput Screening assay for agonists of the steroid receptor coactivator 2 (SRC-2) recruitment by the peroxisome proliferator-activated receptor gamma (PPAR gamma): non-selective agonists. [Related pubchem assays: 1297, 1032 ]; assay type: functional
Sequence of Peroxisome proliferator-activated receptor gamma/Nuclear receptor coactivator 2 (P37231 whole entry, the tested form may be a part): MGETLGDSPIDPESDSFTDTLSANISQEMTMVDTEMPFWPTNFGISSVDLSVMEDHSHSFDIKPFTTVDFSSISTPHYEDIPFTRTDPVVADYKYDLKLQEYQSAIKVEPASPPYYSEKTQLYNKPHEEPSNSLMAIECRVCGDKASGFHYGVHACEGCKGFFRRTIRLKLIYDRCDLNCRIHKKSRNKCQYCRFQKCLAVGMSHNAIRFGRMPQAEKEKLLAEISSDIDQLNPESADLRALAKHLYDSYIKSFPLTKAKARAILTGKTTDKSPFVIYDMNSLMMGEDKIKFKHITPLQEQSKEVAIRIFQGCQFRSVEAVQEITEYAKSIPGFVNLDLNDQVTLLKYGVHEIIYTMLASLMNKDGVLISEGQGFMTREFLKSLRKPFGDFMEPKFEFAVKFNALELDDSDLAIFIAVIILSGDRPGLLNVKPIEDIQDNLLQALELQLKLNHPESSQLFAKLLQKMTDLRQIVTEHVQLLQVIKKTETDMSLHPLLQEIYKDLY
Sequence of Peroxisome proliferator-activated receptor gamma/Nuclear receptor coactivator 2 (Q15596 whole entry, further chain, the tested form may be a part): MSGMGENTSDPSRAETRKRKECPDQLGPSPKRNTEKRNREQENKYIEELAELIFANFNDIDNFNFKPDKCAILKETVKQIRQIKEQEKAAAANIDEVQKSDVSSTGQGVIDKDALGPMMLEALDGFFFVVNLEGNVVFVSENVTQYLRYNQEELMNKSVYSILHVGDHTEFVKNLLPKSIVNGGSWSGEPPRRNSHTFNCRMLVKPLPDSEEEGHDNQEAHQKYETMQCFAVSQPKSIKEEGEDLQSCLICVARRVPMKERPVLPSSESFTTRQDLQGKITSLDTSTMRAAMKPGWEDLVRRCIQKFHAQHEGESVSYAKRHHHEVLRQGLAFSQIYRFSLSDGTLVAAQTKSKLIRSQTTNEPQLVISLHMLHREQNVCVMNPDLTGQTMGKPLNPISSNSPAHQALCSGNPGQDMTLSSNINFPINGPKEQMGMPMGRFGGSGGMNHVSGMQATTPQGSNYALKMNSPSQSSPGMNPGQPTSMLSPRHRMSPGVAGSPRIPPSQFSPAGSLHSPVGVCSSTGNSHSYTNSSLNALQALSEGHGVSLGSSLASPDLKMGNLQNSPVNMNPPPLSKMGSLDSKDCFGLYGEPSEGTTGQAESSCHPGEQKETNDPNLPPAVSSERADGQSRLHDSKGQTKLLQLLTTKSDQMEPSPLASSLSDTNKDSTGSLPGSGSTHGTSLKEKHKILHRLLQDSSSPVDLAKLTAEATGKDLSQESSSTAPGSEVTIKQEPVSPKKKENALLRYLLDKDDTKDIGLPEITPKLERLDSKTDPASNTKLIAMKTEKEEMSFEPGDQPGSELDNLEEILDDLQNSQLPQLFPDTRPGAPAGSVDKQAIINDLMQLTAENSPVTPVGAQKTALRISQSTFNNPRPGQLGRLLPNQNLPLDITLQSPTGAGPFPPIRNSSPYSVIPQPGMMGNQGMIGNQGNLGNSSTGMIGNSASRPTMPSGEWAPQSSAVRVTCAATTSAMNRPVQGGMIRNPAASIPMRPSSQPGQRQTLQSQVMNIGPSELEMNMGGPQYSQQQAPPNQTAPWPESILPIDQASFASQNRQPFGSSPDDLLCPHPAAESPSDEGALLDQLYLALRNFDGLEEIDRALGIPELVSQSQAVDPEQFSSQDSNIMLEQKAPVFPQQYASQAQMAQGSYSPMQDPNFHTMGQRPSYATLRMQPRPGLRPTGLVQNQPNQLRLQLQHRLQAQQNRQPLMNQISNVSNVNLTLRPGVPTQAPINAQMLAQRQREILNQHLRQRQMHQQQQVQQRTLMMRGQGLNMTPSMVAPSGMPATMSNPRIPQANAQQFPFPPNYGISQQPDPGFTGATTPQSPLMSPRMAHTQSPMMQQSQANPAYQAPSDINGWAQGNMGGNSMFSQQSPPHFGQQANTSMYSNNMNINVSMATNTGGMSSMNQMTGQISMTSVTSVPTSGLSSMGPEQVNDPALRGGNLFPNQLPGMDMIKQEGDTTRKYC

[17] = target: Arf-GAP with SH3 domain, ANK repeat and PH domain-containing protein 1 (Homo sapiens, UniProt Q9ULH1); assay type: functional;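 also: biochemical fluorescence polarization dose–response screen measuring inhibition of ASAP1; ASAP1 GAP domain stimulating GTP hydrolysis by truncated human ARF1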
Sequence of Arf-GAP with SH3 domain, ANK repeat and PH domain-containing protein 1 (Q9ULH1 whole entry, the tested form may be a part): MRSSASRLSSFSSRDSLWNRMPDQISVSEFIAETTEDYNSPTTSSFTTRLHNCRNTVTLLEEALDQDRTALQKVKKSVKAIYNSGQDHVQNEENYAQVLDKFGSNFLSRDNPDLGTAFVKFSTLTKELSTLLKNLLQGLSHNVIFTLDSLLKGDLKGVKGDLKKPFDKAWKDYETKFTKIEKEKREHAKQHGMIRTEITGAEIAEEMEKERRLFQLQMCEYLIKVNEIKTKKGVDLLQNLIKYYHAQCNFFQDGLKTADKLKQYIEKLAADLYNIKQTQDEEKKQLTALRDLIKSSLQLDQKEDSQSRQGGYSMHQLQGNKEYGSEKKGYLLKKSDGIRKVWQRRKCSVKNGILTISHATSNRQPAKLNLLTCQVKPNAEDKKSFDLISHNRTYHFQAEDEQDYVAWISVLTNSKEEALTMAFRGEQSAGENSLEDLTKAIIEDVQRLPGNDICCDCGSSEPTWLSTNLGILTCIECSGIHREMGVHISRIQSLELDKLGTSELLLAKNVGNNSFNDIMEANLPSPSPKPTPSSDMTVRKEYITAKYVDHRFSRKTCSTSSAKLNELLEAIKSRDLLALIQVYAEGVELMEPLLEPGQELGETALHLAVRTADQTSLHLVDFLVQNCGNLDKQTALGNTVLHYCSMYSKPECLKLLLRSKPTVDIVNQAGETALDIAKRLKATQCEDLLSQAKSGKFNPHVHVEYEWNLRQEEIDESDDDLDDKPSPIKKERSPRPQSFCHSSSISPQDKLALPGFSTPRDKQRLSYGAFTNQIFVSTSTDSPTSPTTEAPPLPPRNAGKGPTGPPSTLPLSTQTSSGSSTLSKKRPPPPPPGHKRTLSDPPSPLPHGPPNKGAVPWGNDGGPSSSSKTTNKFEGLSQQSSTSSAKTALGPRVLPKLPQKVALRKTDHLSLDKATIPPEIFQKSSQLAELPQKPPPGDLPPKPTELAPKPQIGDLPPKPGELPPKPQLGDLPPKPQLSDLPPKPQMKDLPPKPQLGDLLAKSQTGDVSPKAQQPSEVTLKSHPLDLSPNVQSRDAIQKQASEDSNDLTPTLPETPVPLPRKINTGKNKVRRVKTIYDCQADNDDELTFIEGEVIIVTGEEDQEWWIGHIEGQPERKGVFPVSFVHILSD

[18] = activation of miR-122 Renilla sensor silencing – cell-based, Huh7 psiCHECK-miR122, Renilla luciferase, cherry-picked, dose response (AID 651956); assay type: functional;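 also: huh7 hepatoma cells stably carrying a psiCHECK-2 miR-122 sensor plasmid; renilla luciferase signal reporting endogenous miR-122 activity after 48 h compound exposure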
[19] = target: FAD-linked sulfhydryl oxidase ALR (Homo sapiens, UniProt P55789); assay: ALR-catalysed DTT oxidation blockers – biochemical, H2O2 detection, luminescence, cherry-pick, dose response (AID 493248)
[20] = target: Cytochrome P450 2C19 (Homo sapiens, UniProt P33261); assay: Cytochrome panel assay with activity outcomes. Panel member name: p450-cyp2c19 Compounds with AC50 equal or less than 10 uM are considered active; assay type: functional; conditions: read-out: AC50
Sequence of Cytochrome P450 2C19 (P33261 whole entry): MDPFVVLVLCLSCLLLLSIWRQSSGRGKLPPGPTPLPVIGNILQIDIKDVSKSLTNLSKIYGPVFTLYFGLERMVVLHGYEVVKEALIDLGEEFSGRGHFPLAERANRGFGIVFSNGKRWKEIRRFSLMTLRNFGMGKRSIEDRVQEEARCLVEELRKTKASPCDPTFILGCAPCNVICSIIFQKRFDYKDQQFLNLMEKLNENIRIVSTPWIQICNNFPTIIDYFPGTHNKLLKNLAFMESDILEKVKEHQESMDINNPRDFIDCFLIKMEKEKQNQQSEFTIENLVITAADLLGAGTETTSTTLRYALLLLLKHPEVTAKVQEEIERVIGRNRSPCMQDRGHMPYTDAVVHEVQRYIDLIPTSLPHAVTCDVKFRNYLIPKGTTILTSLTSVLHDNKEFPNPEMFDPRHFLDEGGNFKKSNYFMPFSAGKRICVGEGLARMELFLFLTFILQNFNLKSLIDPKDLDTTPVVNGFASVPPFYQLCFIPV

[21] = target: Cytochrome P450 2D6 (Homo sapiens, UniProt P10635);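 also: CYP2D6 member of a cytochrome P450 panel assay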
Sequence of Cytochrome P450 2D6 (P10635 whole entry): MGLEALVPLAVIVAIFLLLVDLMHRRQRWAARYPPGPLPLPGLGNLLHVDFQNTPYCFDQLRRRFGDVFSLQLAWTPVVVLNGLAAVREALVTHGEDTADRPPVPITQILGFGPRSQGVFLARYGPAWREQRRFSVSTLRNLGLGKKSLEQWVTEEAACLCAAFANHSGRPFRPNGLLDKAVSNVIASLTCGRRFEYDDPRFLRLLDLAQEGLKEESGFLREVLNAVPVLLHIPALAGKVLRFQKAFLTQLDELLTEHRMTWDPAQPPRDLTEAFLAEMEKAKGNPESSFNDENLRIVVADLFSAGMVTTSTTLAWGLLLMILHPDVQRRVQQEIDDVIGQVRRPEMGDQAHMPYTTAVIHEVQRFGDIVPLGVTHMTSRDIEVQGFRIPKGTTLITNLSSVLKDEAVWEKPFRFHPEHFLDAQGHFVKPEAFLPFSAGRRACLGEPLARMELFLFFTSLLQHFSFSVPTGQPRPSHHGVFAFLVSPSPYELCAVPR

Row | SMILES | IC50 [1] | IC50 [2] | IC50 [3] | IC50 [4] | IC50 [5] | IC50 [6] | AC50 [7] | also measured
1 | Cc1ccccc1N(CC(=O)NC1CCCC1)C(=O)c1oc(C(C)(C)C)cc1C | > 66.2 µM (inactive) | > 49.8 µM (inactive) | 0.264 µM (active) | 3.52 µM (active) | > 88.8 µM (inactive) | > 50 µM (inactive) | – | –
2 | COc1cccc(CNC(=O)COc2cc(O)c3c(c2)OC(C)(C)CC3=O)c1 | – | – | – | – | – | – | 79.7 µM (active) | –
3 | COc1cc(/C=C2\CCc3c2nc2ccccc2c3C(=O)O)cc(OC)c1OC | – | – | – | – | – | – | – | EC50 [8]: 94 µM (active); EC50 [9]: 34.8 µM (active); IC50 [10]: 35 µM (active); IC50 [11]: > 66.6 µM (inactive); IC50 [12]: 12.5 µM (active); AC50 [13]: 6.8 µM (active)
4 | Cc1cc(SCC(=O)c2ccc3c(c2)OCO3)nc2ccccc12 | > 66.2 µM (inactive) | > 49.7 µM (inactive) | 3.34 µM (active) | 18.8 µM (inactive) | 14.1 µM (inactive) | 11.2 µM (inactive) | – | EC50 [14]: 10.2 µM (inactive); EC50 [15]: > 79.4 µM (not active); EC50 [16]: 10.4 µM (not active)
5 | COc1ccc([N+](=O)[O-])cc1NC(=O)c1ccc(-n2nc(C)cc2C)cc1 | – | – | – | – | – | – | – | IC50 [17]: 28 µM (inactive)
6 | COc1ccc(C(=O)NCc2ccc(C)cc2)cc1S(=O)(=O)N1CCOCC1 | – | – | – | – | – | – | 64.8 µM (active) | –
7 | CN1C(=O)c2cc(NC(=O)c3cccc(F)c3)ccc2OC[C@H]2O[C@H](CC(=O)O)CC[C@H]21 | – | – | – | – | – | – | – | AC50 [18]: 0.366 µM (active)
8 | CC[C@]12c3[nH]c4cc(-c5ccco5)ccc4c3CCN1C(=O)[C@@H](CC(=O)NC/C=C(\C)CCC=C(C)C)C[C@@H]2C(=O)N1CCN(C(=O)c2ccco2)CC1 | > 66.2 µM (inactive) | > 49.8 µM (inactive) | 1.07 µM (active) | 3.23 µM (active) | 39.5 µM (inactive) | 2.05 µM (active) | – | –
9 | OCc1ccc(-c2nn(Cc3ccccc3)c3ccccc23)o1 | – | – | – | – | – | – | – | AC50 [19]: 10 µM (active); AC50 [20]: 10 µM (inconclusive); AC50 [18]: 0.547 µM (active); AC50 [21]: 39.8 µM (inconclusive)
10 | Cc1ccc(NC(=O)CN2C(=O)S/C(=C\c3cc(C)n(-c4cccc(C(=O)O)c4)c3C)C2=O)cc1 | – | – | – | – | – | – | 2.03 µM (active) | EC50 [8]: > 300 µM (not active); EC50 [9]: > 300 µM (not active)
